Reference: paper PMC11207335, “In Vitro Metabolism and Transport Characteristics of Zastaprazan” (Pharmaceutics, 2024)
Read-outs that look alike come from different tables or passages of the source.

What was measured:
[1] = target: T1, P-gp (Homo sapiens, UniProt P08183); assay: Permeability in LLC-PK1-P-gp cells; type: in vitro ADME; details: for Substrate: P-gp; for Papp A→B at 1 h, 4 µM / Papp B→A at 1 h, 4 µM / efflux ratio at 1 h, 4 µM: pig, LLC-PK1-P-gp; for efflux ratio at 1 h, 4 µM: read-out: ER
T1 construct: host or cells: LLC-PK1 (porcine kidney cells)
Method: LLC-PK1-P-gp or BCRP cells were seeded on collagen-coated 24-transwell membranes at a density of 2.5 × 10^5 cells/mL and maintained at 37 °C in a humidified atmosphere with 5% CO2/95% air for 5 days in Medium 199 supplemented with 10% […], 50 μg/mL of gentamycin, and 50 μg/mL of hygromycin. The culture medium was replaced every other day. On the day of the experiment, the growth medium was discarded, and the attached cells were washed with prewarmed HBSS (pH 7.4) and preincubated with HBSS for 20 min at 37 °C. […] Aliquots (0.1 mL) in the apical side were transferred to clean tubes every 15 min for 1 h and replaced with an equal volume of fresh HBSS.
LLC-PK1-P-gp or BCRP cells were seeded on collagen-coated 24-transwell membranes at a density of 2.5 × 10^5 cells/mL and cultured for 5 days. The growth medium was discarded on the day of the experiment, and the attached cells were washed with prewarmed HBSS (pH 7.4) and preincubated with HBSS for 20 min at 37 °C. […] Aliquots (0.1 mL) in the apical side were transferred to clean tubes every 15 min for 1 h and replaced with an equal volume of fresh HBSS. Aliquots (30 μL) of each sample were vortex-mixed with 90 μL of IS solution for 1 min, and then centrifugation was performed at 13,500 rpm at 4 °C for 5 min. Aliquots (5 μL) of the supernatant were injected into the LC-MS/MS for analysis.
The permeability (Papp) was calculated from the following equation [23, 24]: Papp(cm/s)=transport ratenmol/s/JP−1366 or M1 concentration (μM)×surface area of membrane (cm^2)

[2] = tested on: HEK293-mock cells; assay: Uptake into HEK293-mock cells; details: 6 μM
[3] = target: T2, OCT1 (Homo sapiens, UniProt O15245); assay: Uptake into HEK293 cells expressing OCT1; details: for Uptake Rate / Fold-Change: 6 μM; for Substrate: OCT1; for Fold-Change: vs HEK293-mock
T2 sequence (O15245 1-554): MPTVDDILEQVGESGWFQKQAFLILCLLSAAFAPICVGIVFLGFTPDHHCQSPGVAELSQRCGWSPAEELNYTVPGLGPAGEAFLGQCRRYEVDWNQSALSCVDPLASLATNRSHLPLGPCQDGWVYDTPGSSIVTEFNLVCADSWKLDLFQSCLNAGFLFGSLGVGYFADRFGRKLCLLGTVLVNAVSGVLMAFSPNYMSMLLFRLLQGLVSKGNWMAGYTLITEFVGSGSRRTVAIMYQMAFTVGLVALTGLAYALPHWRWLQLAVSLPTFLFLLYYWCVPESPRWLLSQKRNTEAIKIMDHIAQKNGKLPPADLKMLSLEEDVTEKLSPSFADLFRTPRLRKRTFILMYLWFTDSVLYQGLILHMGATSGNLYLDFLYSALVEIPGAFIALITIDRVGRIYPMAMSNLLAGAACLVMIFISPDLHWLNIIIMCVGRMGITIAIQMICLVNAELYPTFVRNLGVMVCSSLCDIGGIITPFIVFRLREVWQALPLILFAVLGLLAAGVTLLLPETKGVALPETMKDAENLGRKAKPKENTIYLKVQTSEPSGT

[4] = target: T3, OAT1 (Homo sapiens, UniProt Q4U2R8); assay: Uptake into HEK293 cells expressing OAT1; details: for Uptake Rate / Fold-Change: 6 μM; for Substrate: OAT1; for Fold-Change: vs HEK293-mock
T3 sequence (Q4U2R8 1-563): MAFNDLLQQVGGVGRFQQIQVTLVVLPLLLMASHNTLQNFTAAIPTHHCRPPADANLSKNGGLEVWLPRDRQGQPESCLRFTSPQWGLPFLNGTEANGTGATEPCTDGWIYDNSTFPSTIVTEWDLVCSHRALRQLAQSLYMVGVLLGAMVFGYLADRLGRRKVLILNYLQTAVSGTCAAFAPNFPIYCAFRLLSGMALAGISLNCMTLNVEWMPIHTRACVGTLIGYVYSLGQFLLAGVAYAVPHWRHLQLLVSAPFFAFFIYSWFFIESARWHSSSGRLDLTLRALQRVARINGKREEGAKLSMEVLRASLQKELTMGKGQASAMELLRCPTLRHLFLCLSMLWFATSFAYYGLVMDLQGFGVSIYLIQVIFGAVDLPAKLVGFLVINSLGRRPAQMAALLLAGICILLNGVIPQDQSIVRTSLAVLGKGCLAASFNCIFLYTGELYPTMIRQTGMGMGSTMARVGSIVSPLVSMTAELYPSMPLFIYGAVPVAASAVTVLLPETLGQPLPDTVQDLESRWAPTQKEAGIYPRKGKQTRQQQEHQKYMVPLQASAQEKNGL

[5] = target: T4, OAT3 (Homo sapiens, UniProt Q8TCC7); assay: Uptake into HEK293 cells expressing OAT3; details: for Uptake Rate / Fold-Change: 6 μM; for Substrate: OAT3; for Fold-Change: vs HEK293-mock
T4 sequence (Q8TCC7 1-542): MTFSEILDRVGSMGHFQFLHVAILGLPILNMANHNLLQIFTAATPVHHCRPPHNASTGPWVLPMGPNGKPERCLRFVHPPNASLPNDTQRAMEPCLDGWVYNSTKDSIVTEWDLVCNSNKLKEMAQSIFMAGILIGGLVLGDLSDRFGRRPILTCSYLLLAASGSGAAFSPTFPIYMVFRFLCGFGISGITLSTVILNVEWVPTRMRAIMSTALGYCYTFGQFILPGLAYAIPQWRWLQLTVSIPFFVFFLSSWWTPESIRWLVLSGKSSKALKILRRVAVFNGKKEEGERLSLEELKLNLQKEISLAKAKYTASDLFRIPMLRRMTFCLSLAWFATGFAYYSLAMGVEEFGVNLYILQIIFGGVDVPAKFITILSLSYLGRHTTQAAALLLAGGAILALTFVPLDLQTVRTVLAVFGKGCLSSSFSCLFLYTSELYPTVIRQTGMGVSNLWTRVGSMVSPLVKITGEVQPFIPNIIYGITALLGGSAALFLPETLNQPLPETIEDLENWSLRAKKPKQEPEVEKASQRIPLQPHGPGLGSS

[6] = pH 7.4, with CsA 20 μM, CsA 20 μM

T1 sequence (P08183 whole entry): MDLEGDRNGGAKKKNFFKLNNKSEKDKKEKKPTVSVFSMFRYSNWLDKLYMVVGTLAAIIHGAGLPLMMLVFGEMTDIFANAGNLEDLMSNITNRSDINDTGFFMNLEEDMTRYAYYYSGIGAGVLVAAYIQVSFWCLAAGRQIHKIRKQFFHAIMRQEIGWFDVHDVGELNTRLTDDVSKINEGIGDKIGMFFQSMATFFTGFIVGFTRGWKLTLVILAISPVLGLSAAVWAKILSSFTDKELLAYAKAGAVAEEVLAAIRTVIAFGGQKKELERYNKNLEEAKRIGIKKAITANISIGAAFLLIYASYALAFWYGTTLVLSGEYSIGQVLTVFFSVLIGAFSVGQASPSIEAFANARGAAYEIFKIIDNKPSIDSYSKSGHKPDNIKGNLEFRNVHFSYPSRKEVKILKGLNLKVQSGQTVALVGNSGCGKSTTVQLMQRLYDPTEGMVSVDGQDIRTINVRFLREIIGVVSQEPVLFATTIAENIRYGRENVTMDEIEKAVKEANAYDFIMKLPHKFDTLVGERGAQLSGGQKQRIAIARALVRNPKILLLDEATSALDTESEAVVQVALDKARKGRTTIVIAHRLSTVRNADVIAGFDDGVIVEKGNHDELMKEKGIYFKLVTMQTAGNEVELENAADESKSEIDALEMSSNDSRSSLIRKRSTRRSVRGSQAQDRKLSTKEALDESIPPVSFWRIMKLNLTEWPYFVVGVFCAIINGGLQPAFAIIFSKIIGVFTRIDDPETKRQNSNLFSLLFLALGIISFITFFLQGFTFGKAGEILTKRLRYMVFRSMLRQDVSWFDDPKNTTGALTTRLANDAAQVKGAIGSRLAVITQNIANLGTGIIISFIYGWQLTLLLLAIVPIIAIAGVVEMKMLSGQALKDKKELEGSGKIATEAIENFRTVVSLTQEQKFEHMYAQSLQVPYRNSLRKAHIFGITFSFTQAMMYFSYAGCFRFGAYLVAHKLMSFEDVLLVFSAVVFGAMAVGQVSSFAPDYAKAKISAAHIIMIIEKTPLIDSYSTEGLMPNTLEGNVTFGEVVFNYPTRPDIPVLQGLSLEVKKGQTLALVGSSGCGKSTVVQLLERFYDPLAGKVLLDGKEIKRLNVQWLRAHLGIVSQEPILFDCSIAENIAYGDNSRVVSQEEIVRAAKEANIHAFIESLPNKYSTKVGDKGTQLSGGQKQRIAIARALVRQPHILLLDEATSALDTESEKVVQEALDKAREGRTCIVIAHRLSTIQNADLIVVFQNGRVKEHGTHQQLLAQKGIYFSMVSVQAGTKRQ

Structure (SMILES)	Substrate [1]	Papp A→B at 1 h, 4 µM [1, 6] [×10⁻⁶ cm/s]	Papp B→A at 1 h, 4 µM [1, 6] [×10⁻⁶ cm/s]	Papp A→B at 1 h, 4 µM ([1]; pH 7.4, Control) [×10⁻⁶ cm/s]	Papp B→A at 1 h, 4 µM ([1]; pH 7.4, Control) [×10⁻⁶ cm/s]	Uptake Rate ([2]; cimetidine 100 μM) [pmol/min/10^5 Cells]	Uptake Rate ([2]; control) [pmol/min/10^5 Cells]	Uptake Rate ([2]; probenecid 20 μM) [pmol/min/10^5 Cells]	Uptake Rate ([2]; rifampin 20 μM) [pmol/min/10^5 Cells]	Uptake Rate ([3]; HEK293-OCT1, cimetidine 100 μM) [pmol/min/10^5 Cells]	Uptake Rate ([3]; HEK293-OCT1, control) [pmol/min/10^5 Cells]	Substrate [3]	Uptake Rate ([4]; HEK293-OAT1, control) [pmol/min/10^5 Cells]	Uptake Rate ([4]; HEK293-OAT1, probenecid 20 μM) [pmol/min/10^5 Cells]	Substrate [4]	Uptake Rate ([5]; HEK293-OAT3, control) [pmol/min/10^5 Cells]	Uptake Rate ([5]; HEK293-OAT3, probenecid 20 μM) [pmol/min/10^5 Cells]	Substrate [5]	further results
Cc1cccc(C)c1CNc1cc(C(=O)N2CCC2)cn2c(C)c(C)nc12 [JP-1366, 1-azetidinyl(8-(((2,6-dimethylphenyl)methyl)amino)-2,3-dimethylimidazo(1,2-a)pyridin-6-yl)methanone]	No	20.7 ± 1.31	32 ± 0.94	20.3 ± 0.53	25.6 ± 1.71	55.35 ± 2.24	51.53 ± 3.16	54.22 ± 1.90	57.80 ± 0.89	82.01 ± 3.72	82.43 ± 3.59	No	68.04 ± 2.96	61.04 ± 5.29	No	58.53 ± 3.71	52.47 ± 2.27	No	–
Cc1cccc(CO)c1CNc1cc(C(=O)N2CCC2)cn2c(C)c(C)nc12 [M1, azetidin-1-yl(8-((2-(hydroxymethyl)-6-methyl-benzyl)amino)-2,3-dimethylimidazo[1,2-a]pyridin-6-yl)methanone]	Yes	18.5 ± 0.96	62.8 ± 5.26	6.99 ± 0.6	99.3 ± 1.66	55.35 ± 2.24	51.53 ± 3.16	54.22 ± 1.90	57.80 ± 0.89	82.01 ± 3.72	82.43 ± 3.59	No	68.04 ± 2.96	61.04 ± 5.29	No	58.53 ± 3.71	52.47 ± 2.27	No	efflux ratio at 1 h, 4 µM [1, 6]: 3.4; efflux ratio at 1 h, 4 µM ([1]; pH 7.4, Control): 14.2; Fold-Change ([2]; cimetidine 100 μM): 1.1; Fold-Change ([2]; control): 1.0; Fold-Change ([2]; probenecid 20 μM): 1.1; Fold-Change ([2]; rifampin 20 μM): 1.1; Fold-Change ([3]; HEK293-OCT1, cimetidine 100 μM): 1.6; Fold-Change ([3]; HEK293-OCT1, control): 1.6; Fold-Change ([4]; HEK293-OAT1, control): 1.3; Fold-Change ([4]; HEK293-OAT1, probenecid 20 μM): 1.2; Fold-Change ([5]; HEK293-OAT3, control): 1.1; Fold-Change ([5]; HEK293-OAT3, probenecid 20 μM): 1.0
